Experimental findings from patent publication US20260028365A1 (BIOGEN MA INC., priority 2022, published 2026) are described below.

SMILES strings stand for the structures. Read-outs that look alike come from different tables or passages of the source.

By IC50 is commonly meant the concentration that inhibits the measured activity by half. Read a high IC50 as weaker potency in that assay.

One test addresses JH2 domain of human Tyk2 (Homo sapiens (Human), UniProt P29597). In words: JH2 Biochemical Assay (TR-FRET probe displacement). It is filed as binding. Background: Time-resolved FRET reads energy transfer from a long-lived donor to a nearby acceptor.
The target of another test is Tyk2 (Homo sapiens (Human), UniProt P29597). In words: pSTAT4 Cell Assay (MSD, NK92 cells). It is filed as cell-based.
Setting [1] is: TR-FRET probe displacement, JH2 domain of human Tyk2.
[2] abbreviates: JH2 domain of human Tyk2, TR-FRET probe displacement.
Setting [3] is: TR-FRET probe displacement, JH2 domain.

Chain of JH2 domain of human Tyk2 (P29597 575-876): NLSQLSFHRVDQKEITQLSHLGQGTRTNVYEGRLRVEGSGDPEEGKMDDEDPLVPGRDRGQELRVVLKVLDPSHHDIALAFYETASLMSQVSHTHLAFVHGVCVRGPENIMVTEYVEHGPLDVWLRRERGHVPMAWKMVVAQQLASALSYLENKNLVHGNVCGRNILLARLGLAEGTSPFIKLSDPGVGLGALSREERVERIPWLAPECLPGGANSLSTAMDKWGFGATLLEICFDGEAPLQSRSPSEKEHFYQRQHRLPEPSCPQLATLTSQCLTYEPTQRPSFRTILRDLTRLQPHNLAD
Chain of Tyk2 (P29597 whole entry, the tested form may be a part): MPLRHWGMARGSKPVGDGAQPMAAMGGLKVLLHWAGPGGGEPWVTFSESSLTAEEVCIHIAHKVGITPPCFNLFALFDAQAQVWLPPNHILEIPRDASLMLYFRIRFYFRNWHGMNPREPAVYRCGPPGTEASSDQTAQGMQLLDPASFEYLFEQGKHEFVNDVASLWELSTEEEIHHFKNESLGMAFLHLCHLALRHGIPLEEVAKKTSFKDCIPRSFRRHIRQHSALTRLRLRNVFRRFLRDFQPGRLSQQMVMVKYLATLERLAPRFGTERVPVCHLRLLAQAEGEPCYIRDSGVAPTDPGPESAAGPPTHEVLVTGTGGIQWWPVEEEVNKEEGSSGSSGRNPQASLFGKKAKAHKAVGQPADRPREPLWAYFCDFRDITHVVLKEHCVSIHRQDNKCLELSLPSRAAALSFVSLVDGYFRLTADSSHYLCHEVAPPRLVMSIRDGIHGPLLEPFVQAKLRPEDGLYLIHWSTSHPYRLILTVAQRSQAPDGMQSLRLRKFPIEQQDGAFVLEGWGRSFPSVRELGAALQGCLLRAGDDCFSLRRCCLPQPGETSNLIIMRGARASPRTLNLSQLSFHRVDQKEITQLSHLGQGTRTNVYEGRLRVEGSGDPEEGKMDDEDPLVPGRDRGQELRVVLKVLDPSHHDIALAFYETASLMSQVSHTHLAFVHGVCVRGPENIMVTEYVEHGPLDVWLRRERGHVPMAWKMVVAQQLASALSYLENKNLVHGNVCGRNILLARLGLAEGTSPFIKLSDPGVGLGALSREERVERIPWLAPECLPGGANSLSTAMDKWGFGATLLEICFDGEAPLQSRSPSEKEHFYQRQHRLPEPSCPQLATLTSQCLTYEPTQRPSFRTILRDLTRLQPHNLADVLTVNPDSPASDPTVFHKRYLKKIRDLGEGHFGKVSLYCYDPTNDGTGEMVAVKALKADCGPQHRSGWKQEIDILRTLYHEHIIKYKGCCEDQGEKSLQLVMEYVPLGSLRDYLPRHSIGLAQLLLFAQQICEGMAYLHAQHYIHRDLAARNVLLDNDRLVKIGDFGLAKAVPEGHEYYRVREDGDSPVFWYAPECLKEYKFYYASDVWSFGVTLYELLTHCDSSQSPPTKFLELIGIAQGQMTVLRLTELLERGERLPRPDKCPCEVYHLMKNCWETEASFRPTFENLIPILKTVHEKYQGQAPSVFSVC

For `CC(=O)Nc1cc(Nc2cc(C)nc(C(C)(F)F)n2)c(C)cn1` [Example 41, N-(4-((2-(1,1-difluoroethyl)-6-methylpyrimidin-4-yl)amino)-5-methylpyridin-2-yl)acetamide], the IC50 was 0.01 to 0.1 µM on JH2 domain of human Tyk2 (setting [1]) and 0.1 to 1 µM at Tyk2 (MSD).
Turning to `CC(=O)Nc1cc(Nc2cc(C)nc(C(C)(F)F)n2)c(-c2cnc(C)o2)cn1` [Example 600, N-(4-((2-(1,1-difluoroethyl)-6-methylpyrimidin-4-yl)amino)-5-(2-methyloxazol-5-yl)pyridin-2-yl)acetamide], the IC50 on JH2 domain of human Tyk2 (setting [2]) is 0.01 to 0.1 µM; against Tyk2 (MSD) it was 0.1 to 1 µM.
The corresponding values for `CC(=O)Nc1cc(Nc2cc(C)nc(C(C)(F)F)n2)c(-c2ccc([C@@H]3CN(C)CCO3)cn2)cn1` (single isomer, unassigned) [Example 643, (R)-N-(4′-((2-(1,1-difluoroethyl)-6-methylpyrimidin-4-yl)amino)-5-(4-methylmorpholin-2-yl)-[2,3′-bipyridin]-6′-yl)acetamide or (S)-N-(4′-((2-(1,1-difluoroethyl)-6-methylpyrimidin-4-yl)amino)-5-(4-methylmorpholin-2-yl)-[2,3′-bipyridin]-6′-yl)acetamide] are at most 0.01 µM and at most 0.01 µM.
The corresponding values for `CCOc1cnc(NC(C)=O)cc1Nc1cc(OC2CC(C)C2)nc(C(C)(F)F)n1` (centres unmarked) [Example 464, N-(4-((2-(1,1-difluoroethyl)-6-(3-methylcyclobutoxy)pyrimidin-4-yl)amino)-5-ethoxypyridin-2-yl)acetamide] are at most 0.01 µM and at most 0.01 µM.
Turning to `COCCOc1cnc(NC(C)=O)cc1Nc1cncc(C(F)CF)n1` (centres unmarked) [Example 89, N-(4-((6-(1,2-difluoroethyl)pyrazin-2-yl)amino)-5-(2-methoxyethoxy)pyridin-2-yl)acetamide], the IC50 at JH2 domain of human Tyk2 (setting [1]) and against Tyk2 (MSD) was 0.01 to 0.1 µM throughout.
As for `CC(=O)Nc1cc(Nc2ccnc(C(C)(F)F)n2)c(-c2cnc(N3CC4(CCOC4)C3)cn2)cn1` [Example 872, N-(5-(5-(6-oxa-2-azaspiro[3.4]octan-2-yl)pyrazin-2-yl)-4-((2-(1,1-difluoroethyl)pyrimidin-4-yl)amino)pyridin-2-yl)acetamide], the IC50 on JH2 domain of human Tyk2 (setting [3]) was at most 0.01 µM; at Tyk2 it was 0.01 to 0.1 µM.
Take `CCOc1cnc(NC(C)=O)cc1Nc1nc(C(C)(F)F)ncc1F` [Example 34, N-(4-((2-(1,1-difluoroethyl)-5-fluoropyrimidin-4-yl)amino)-5-ethoxypyridin-2-yl)acetamide]: the IC50 at JH2 domain of human Tyk2 (setting [1]) was 0.01 to 0.1 µM; against Tyk2 (MSD), at least 1 µM.
Regarding `COc1cnc(NC(C)=O)cc1Nc1cc(-c2cnn(C3CC3)c2)nc(C(C)(F)F)n1` [Example 376, N-(4-((6-(1-cyclopropyl-1H-pyrazol-4-yl)-2-(1,1-difluoroethyl)pyrimidin-4-yl)amino)-5-methoxypyridin-2-yl)acetamide], the IC50 at JH2 domain of human Tyk2 (setting [2]) and against Tyk2 (MSD) was 0.01 to 0.1 µM throughout.
Regarding `COc1cc(-c2cnc(NC(C)=O)cc2Nc2cc(C)nc(C(C)(C)F)n2)ncn1` [Example 196, N-(4-((2-(2-fluoropropan-2-yl)-6-methylpyrimidin-4-yl)amino)-5-(6-methoxypyrimidin-4-yl)pyridin-2-yl)acetamide], the values for the IC50 at JH2 domain of human Tyk2 (setting [1]) and against Tyk2 (MSD) were at most 0.01 µM and 0.01 to 0.1 µM, respectively.
The corresponding values for `CC(=O)Nc1cc(Nc2cc(C)nc(C(C)(F)F)n2)c(OCc2scnc2C)cn1` [Example 334, N-(4-((2-(1,1-difluoroethyl)-6-methylpyrimidin-4-yl)amino)-5-((4-methylthiazol-5-yl)methoxy)pyridin-2-yl)acetamide] are 0.01 to 0.1 µM and 0.1 to 1 µM.
For `CC(=O)Nc1cc(Nc2ccnc(C(C)(F)F)n2)c(-c2ccn(C)n2)cn1` [Example 202, N-(4-((2-(1,1-difluoroethyl)pyrimidin-4-yl)amino)-5-(1-methyl-1H-pyrazol-3-yl)pyridin-2-yl)acetamide] the same measures were at most 0.01 µM and at most 0.01 µM.
In the case of `CC(=O)Nc1cc(Nc2cc(C)nc(C(C)(F)F)n2)c(OCc2cc(C)on2)cn1` [Example 497, N-(4-((2-(1,1-difluoroethyl)-6-methylpyrimidin-4-yl)amino)-5-((5-methylisoxazol-3-yl)methoxy)pyridin-2-yl)acetamide], the IC50 on JH2 domain of human Tyk2 (setting [2]) is at most 0.01 µM; on Tyk2 (MSD) it was 0.01 to 0.1 µM.
As for `COc1cnc(NC(C)=O)cc1Nc1cc(-c2cnn(CC3CC3)c2)nc(C(C)(F)F)n1` [Example 378, N-(4-((6-(1-(cyclopropylmethyl)-1H-pyrazol-4-yl)-2-(1,1-difluoroethyl)pyrimidin-4-yl)amino)-5-methoxypyridin-2-yl)acetamide], the concentration for half-maximal inhibition (IC50) on JH2 domain of human Tyk2 (setting [2]) is at most 0.01 µM; against Tyk2 (MSD) it was 0.01 to 0.1 µM.
For `COc1cnc(NC(C)=O)cc1Nc1cc(OC2CC(C#N)C2)nc(C(C)(F)F)n1` (centres unmarked) [Example 456, N-(4-((6-(3-cyanocyclobutoxy)-2-(1,1-difluoroethyl)pyrimidin-4-yl)amino)-5-methoxypyridin-2-yl)acetamide] the same measures were at most 0.01 µM and 0.01 to 0.1 µM.
On to `CC(=O)Nc1cc(Nc2cc(C3CC3)nc(C(C)(F)F)n2)c(-c2ccn(C)n2)cn1` [Example 206, N-(4-((6-cyclopropyl-2-(1,1-difluoroethyl)pyrimidin-4-yl)amino)-5-(1-methyl-1H-pyrazol-3-yl)pyridin-2-yl)acetamide], for which the IC50 at JH2 domain of human Tyk2 (setting [1]) and on Tyk2 (MSD) was at most 0.01 µM each time.
Consider `COc1cnc(NC(C)=O)cc1Nc1cc(-c2cn[nH]c2)nc(C(C)(F)F)n1` [Example 416, N-(4-((2-(1,1-difluoroethyl)-6-(1H-pyrazol-4-yl)pyrimidin-4-yl)amino)-5-methoxypyridin-2-yl)acetamide], for which the IC50 is at most 0.01 µM on JH2 domain of human Tyk2 (setting [2]) and 0.1 to 1 µM against Tyk2 (MSD).
Take `CCOc1cnc(NC(C)=O)cc1Nc1cc(C(C)(F)F)ccn1` [Example 2, N-(4-((4-(1,1-difluoroethyl)pyridin-2-yl)amino)-5-ethoxypyridin-2-yl)acetamide]: the IC50 at JH2 domain of human Tyk2 (setting [1]) is 0.01 to 0.1 µM; against Tyk2 (MSD) it was at least 1 µM.
On to `CC(=O)Nc1cc(Nc2ccnc(C(C)(F)F)n2)c(-c2ccc(CN3C[C@H]4C[C@@H]3CO4)cn2)cn1` [Example 886, N-(5-(((1R,4R)-2-oxa-5-azabicyclo[2.2.1]heptan-5-yl)methyl)-4′-((2-(1,1-difluoroethyl)pyrimidin-4-yl)amino)-[2,3′-bipyridin]-6′-yl)acetamide], for which the IC50 at JH2 domain of human Tyk2 (setting [3]) and at Tyk2 was at most 0.01 µM each time.
Take `COc1cnc(NC(C)=O)cc1Nc1cc(C)nc(C23COC(C2)C3)n1` [Example 448, N-(4-((2-(2-oxabicyclo[2.1.1]hexan-4-yl)-6-methylpyrimidin-4-yl)amino)-5-methoxypyridin-2-yl)acetamide]: the values for the IC50 on JH2 domain of human Tyk2 (setting [2]) and against Tyk2 (MSD) were 0.01 to 0.1 µM and 0.1 to 1 µM, respectively.
`COC1(C)CN(c2cnc(-c3cnc(NC(C)=O)cc3Nc3ccnc(C(C)(F)F)n3)cn2)C1` [Example 868, N-(4-((2-(1,1-difluoroethyl)pyrimidin-4-yl)amino)-5-(5-(3-methoxy-3-methylazetidin-1-yl)pyrazin-2-yl)pyridin-2-yl)acetamide]: the IC50 on JH2 domain of human Tyk2 (setting [3]) is at most 0.01 µM; at Tyk2, 0.01 to 0.1 µM.
Consider `CC(=O)Nc1cc(Nc2ccnc(C(C)(F)F)n2)c(-c2ccc(N(C)C)nn2)cn1` [Example 841, N-(4-((2-(1,1-difluoroethyl)pyrimidin-4-yl)amino)-5-(6-(dimethylamino)pyridazin-3-yl)pyridin-2-yl)acetamide], for which the 50% inhibitory concentration (IC50) on JH2 domain of human Tyk2 (setting [3]) and against Tyk2 was at most 0.01 µM throughout.
As to `CC(=O)Nc1cc(Nc2cc(C)nc(C(C)(F)F)n2)c(Oc2cncc(C)n2)cn1` [Example 98, N-(4-((2-(1,1-difluoroethyl)-6-methylpyrimidin-4-yl)amino)-5-((6-methylpyrazin-2-yl)oxy)pyridin-2-yl)acetamide], the IC50 at JH2 domain of human Tyk2 (setting [1]) and on Tyk2 (MSD) was at least 1 µM in each case.
Take `CC(=O)Nc1cc(Nc2cc(C)nc(C(C)(F)F)n2)c(-c2cc(C(C)(C)O)n(C)n2)cn1` [Example 272, N-(4-((2-(1,1-difluoroethyl)-6-methylpyrimidin-4-yl)amino)-5-(5-(2-hydroxypropan-2-yl)-1-methyl-1H-pyrazol-3-yl)pyridin-2-yl)acetamide]: the half-maximal inhibitory concentration (IC50) at JH2 domain of human Tyk2 (setting [1]) and against Tyk2 (MSD) was at most 0.01 µM each time.
On to `CO[C@H]1C[C@H](Oc2cnc(NC(C)=O)cc2Nc2cc(C(C)C)nc(C(C)(F)F)n2)C1` [Example 408, N-(4-((2-(1,1-difluoroethyl)-6-isopropylpyrimidin-4-yl)amino)-5-((1r,3r)-3-methoxycyclobutoxy)pyridin-2-yl)acetamide], for which the IC50 on JH2 domain of human Tyk2 (setting [2]) and at Tyk2 (MSD) was at most 0.01 µM in each case.
`COc1nc(-c2cnc(NC(C)=O)cc2Nc2cc(C)nc(C(C)(F)F)n2)ncc1C` [Example 663, N-(4-((2-(1,1-difluoroethyl)-6-methylpyrimidin-4-yl)amino)-5-(4-methoxy-5-methylpyrimidin-2-yl)pyridin-2-yl)acetamide]: the results for the IC50 at JH2 domain of human Tyk2 (setting [2]) and against Tyk2 (MSD) were 0.01 to 0.1 µM and at least 1 µM, respectively.
`CC(=O)Nc1cc(Nc2ccnc(C(C)(F)F)n2)c(-c2ccn3nccc3n2)cn1` [Example 539, N-(4-((2-(1,1-difluoroethyl)pyrimidin-4-yl)amino)-5-(pyrazolo[1,5-a]pyrimidin-5-yl)pyridin-2-yl)acetamide]: the half-maximal inhibitory concentration (IC50) on JH2 domain of human Tyk2 (setting [2]) and against Tyk2 (MSD) was at most 0.01 µM in each case.
In the case of `CC(=O)Nc1cc(Nc2cc(C)nc(C(C)(F)F)n2)c(OCC2(F)CCCOC2)cn1` (centres unmarked) [Example 417, N-(4-((2-(1,1-difluoroethyl)-6-methylpyrimidin-4-yl)amino)-5-((3-fluorotetrahydro-2H-pyran-3-yl)methoxy)pyridin-2-yl)acetamide], the IC50 at JH2 domain of human Tyk2 (setting [2]) and against Tyk2 (MSD) was at most 0.01 µM in each case.
Consider `[2H]C([2H])([2H])C(=O)Nc1cc(Nc2ccnc(C(C)(F)F)n2)c(-c2ccc(OC)nn2)cn1` [Example 527, N-(4-((2-(1,1-difluoroethyl)pyrimidin-4-yl)amino)-5-(6-methoxypyridazin-3-yl)pyridin-2-yl)acetamide-2,2,2-d3], for which the IC50 on JH2 domain of human Tyk2 (setting [2]) and against Tyk2 (MSD) was at most 0.01 µM each time.
